Source: PMC8571378, “Reversion analysis reveals the in vivo immunogenicity of a poorly MHC I-binding cancer neoepitope” (Nature Communications, 2021)

Experiments:
Meth A [1] = assay: Tumor rejection (immunization-challenge) assay; tumor growth AUC and tumor rejection score (TRS); format: in vivo, BALB/cJ mice
Protocol: Each line represents tumor growth in a single mouse (n = 5 mice per group). AUC for each group is plotted in the panel on the right. Data are presented as mean ± SD. P values were calculated using 1-way ANOVA test adjusted for multiple comparisons (Tukey’s multiple comparison test). c Several truncated versions of the 18-mer Ccdc85c^MUT peptide were tested in tumor rejection assay. BALB/cJ mice were immunized and tumor challenged. Each line represents tumor growth in a single mouse. Although mice were immunized with individual peptides, the data for multiple peptides are grouped into one with the composition of the peptides shown on the right. The tumor rejection data for individual peptides are shown in Supplementary Fig. 1. Tumor rejection score (TRS) for each neoepitope is shown in the yellow box, where five represents a complete tumor protection and zero means no tumor rejection. d On the left panel, total Area Under the Curve (AUC) scores for each group in B are plotted. […] Error bars represent standard deviation (SD). […] P values were calculated using 1-way ANOVA test adjusted for multiple comparisons. […] Matched peak lists for the “heavy” and “light” ions were extracted and monitored, while only single charge y ions were plotted. See Methods for details. f Predicted (by NetMHC4.0) and measured IC50 values of the binding of candidate precise neoepitopes of Ccdc85c^MUT to K^d are shown. […] The affinities of the MS/TRS predicted neoepitopes were also measured for D^d and L^d; measured affinities were below the level of detection.
The mutation is heterozygous and the un-mutated as well as the mutated reads are detected in the transcripts. […] All mice were challenged with the Meth A cells, and tumor rejection was monitored (Fig. 1b upper panel). […]
Area under the curve (AUC) is used as a tool to measure tumor growth. Briefly, AUC was calculated by selecting “Curves & Regression” and then “Area under curve” from the “analyze” tool, using the Prism 5.0 (GraphPad). […]

Meth A [2] = details: anti-CD8 antibody during the priming phase; control antibody without effect; as previously described; cited from earlier work
Description: The mutation is heterozygous and the un-mutated as well as the mutated reads are detected in the transcripts. BALB/cJ bone marrow derived dendritic cells (BMDCs) pulsed with an 18-mer peptide with the mutant amino acid near the center ([…]) or un-mutated peptide ([…]), were used to immunize BALB/cJ mice. All mice were challenged with the Meth A cells, and tumor rejection was monitored (Fig. 1b upper panel).

splenic CD8 T cells = assay: ELIspot for interferon γ of splenic CD8 T cells from immunized mice; format: cell-based, BALB/c mice; details: spleens seven days after second immunization; in vitro stimulation with immunizing 18-mer, 10 µM
Description: BALB/c mice were immunized with 18-mer peptides containing Ccdc85c^MUT as well as Ccdc85c^WT as described in Methods. Spleens were harvested seven days after the second immunization and splenic CD8 T cells tested by ELIspot for interferon γ production in response to stimulation in vitro with the peptides used for immunization. […] Since the CD8 response detected in vitro was so modest, CD8 response as detected in vivo in the tumor microenvironment became our focus.
Supplementary Fig. 3. CD8 response to Ccdc85cMUT and Ccdc85cWT peptides. BALB/c mice were immunized twice at a weekly interval with 18-mer peptides containing Ccdc85cWT (left) or Ccdc85cMUT (right) as described in Methods. Spleens were harvested seven days after the second immunization and CD8 T cells stimulated in vitro with the peptides (10 µM concentration) used for immunization, as indicated. CD8 cells were analyzed for release of interferon g. Each dot represents a single mouse. The P values were calculated using two tailed t-test. Data are presented as mean values +/- SD. […]

DPSSTYIRPFETKVKLLD [18-mer peptide with the mutant amino acid near the center]
tumor rejection (in words) (Meth A [1]; BALB/cJ mice immunized twice, CTLA4 blockade): potent tumor rejection or control in all mice
Tumor rejection score (TRS) (Meth A [1]; BALB/cJ mice, BMDCs pulsed with 40 µg peptide, two immunizations one week apart, CTLA4 blockade (9D9), scale 0 (no rejection) to 5 (100% of mice)): 5.0
effect of CD8 depletion on anti-tumor activity (Meth A [2]): abrogated
CD8 response (interferon γ ELIspot) (splenic CD8 T cells): very modest but statistically significant CD8 response
